One experiment deals with VSV/HIV. The format is cell-based.
The next experiment concerns HIV-1 Lai. The experiment in a line: HIV entry into HeLa P4 / P4-C5 cells (β-galactosidase activity), HIV-1 Lai. It is filed as cell-based.
In experiment [1] the test system is HIV-1 pseudotyped Mo-MLV virus. The experiment in a line: Infection of CEM cells by HIV-1 pseudotyped Mo-MLV virus (p24). As to conditions: p24 at 48 hours p.i., AZT 5 μM, TASP 5 μM.
Procedure: CEM cells (2×10^5) were infected with the HIV-1 pseudoryped Mo-MLV virus (Experimental procedure) at 95 ng of p24/ml, in the absence (histogram Control) or presence of different additions (as indicated). The infection was monitored by the production of p24, which was measured in the culture supernatant at 48 hours p.i. The mean±SD of duplicate samples is given. Treatment of cells with the different antibodies was as in FIG. 6 +L. For a control of infection, cells were pretreated with 5 μM AZT before infection.
Hela cells were cotransfected by electroporation with plasmids pNL4-3 defective in env gene (Borman et al., 1995) and pE4070A expressing amphotrope envelope glycoproteins of Mo-MLV (Battini et al., 1996). Electroporation (Schwartz et al., 1996) was performed at 200 V, 960 μF, using a 4 mm wide cuvettes in a BIO-Rad Gene Pulser. The pseudotyped virus was recovered from the culture supernatant after 48 hours of culturing.
For experiment [2], the system named is HIV-1 AZT resistant, Saquinavir resistant, Nevirapine resistant. Nature of the experiment: Entry of HIV-1 isolates resistant to antiviral drugs into HeLa cells (β-galactosidase). To be noted: heparin 5 mg/ml. It is filed as cell-based. The protocol:
HIV entry and replication, results in the activation of the HIV LTR, leading to the expression of the lacZ gene. Therefore, at 24 and 48 hours post-infection, the β-galactosidase activity could be measured in cell extracts directly. Consequently, this latter technique could be used to monitor HIV entry into cells. The HIV dose used corresponded to the amount of virus containing 20-40 ng/ml of p24.
In these experiments, the background values of the β-galactosidase activity were assesed by the samples incubated with the a-CD4 mAb. Furthermore, the effect of heparin (5 mg/ml) was investigated.

For a further experiment, the system named is HIV-1 JRCSF. The experiment in a line: HIV entry into HeLa P4-C5 cells (β-galactosidase), HIV-1 JRCSF. It is filed as cell-based. To be noted: HIV-1 JRCSF; heparin 1, 5, 10 μg/ml.
Another experiment has as its system HIV-1 Ada-M. Nature of the experiment: HIV-1 Ada-M entry into HeLa P4-C5 cells (β-galactosidase). The format is cell-based. To be noted: HeLa P4-C5, β-galactosidase at 48 hours. As to the method: HeLa cells (P4-C5) were treated (incubation at 37° C., 30 min) with AZT (5 μM), (α-CD4 mAb CBT4 (5 μg/ml) before infection with the different HIV isolates in order to obtain the background β-galactosidase activity compared to untreated cells (Control). During the same time, the different HIV isolates were treated (incubation at room temperature, 15 min) with 1, 5, and 10 μg/ml of heparin before addition to untreated cells. The b-galactosidase activity was assayed at 48 hours post-infection as a measure of HIV entry (3 +L7).

The next experiment has as its system HIV-1 Bal. Nature of the experiment: HIV entry into HeLa P4-C5 cells (β-galactosidase), HIV-1 Ba-L. The format is cell-based. To be noted: HIV-1 Ba-L; heparin; mAb a-V3 5 μg/ml.
A further experiment deals with SIVmac. Nature of the experiment: SIVmac entry into HeLa cells (β-galactosidase). It is filed as cell-based, SIV. As to conditions: β-galactosidase at 48 hours.
The test system of another experiment is HIV-2 ROD. Nature of the experiment: HIV entry into HeLa P4-C5 cells (β-galactosidase), HIV-2 ROD. It is filed as cell-based. To be noted: heparin 1, 5, 10 μg/ml.
Experiment [3] concerns V3 loop-BPs (nucleolin, PHAP II, PHAP I). Nature of the experiment: BIAcore biosensor binding to immobilized V3 loop-BPs. More on the design: species or system human. To be noted: for equilibrium affinity constant Ka: binding to the V3 loop-BPs; for Ka (equilibrium affinity constant) / ka (association rate constant) / kd (dissociation rate constant): binding protein(s) V3 loop-BPs, BIAcore.

Experiment [4] deals with V3 loop-BPs. Nature of the experiment: ELISA binding of proteins to coated V3 loop-BPs. Also on record: species or system human. As to conditions: gp120 1 ng/ml, gp41 2 ng/ml, histone H3. As to the method:
This is an ELISA-type experiment using the purified preparation of the V3 loop-BPs which was as described in FIG. 2 +L. The purified preparation of the V3 loop-BPs at different concentrations (12;5 to 200 ng/ml; abscissa) was coated to the plate before incubation with either gp120 (at 1 ng/ml; ), gp41 (at 2 ng/ml;), or histone H3 (1 μg/ml;). […] As a control mAb, we used mAb OKT4A specific for CD4. The abscissa gives the concentration of V3 loop-BPs in ng/ml. The ordinate gives the optical density (OD) values measured at 450 nm as an indicator of reactivity. An OD value less than 0.2 was considered as not significant. mAb OKT4A at 1 mg/ml gave an OD value of 0.20 when used in wells preincubated with either gp120, gp41, or histone H3. Rabbit antiserum against CXCR4 at dilutions as low as 1:200 generated an OD value of 0.15.
The resulting absorbance was measured at 450 nm.
For orientation: In an ELISA, binding on a coated surface is turned into a signal by an enzyme label.

For another experiment, the target named is CD4 (Homo sapiens, UniProt P01730). Nature of the experiment: BIAcore biosensor binding to soluble CD4. To be noted: binding protein soluble recombinant CD4, BIAcore.
Experiment [5] concerns the target V3 loop-BPs. The experiment in a line: Inhibition of 5[Kψ(CH2N)PR]-TASP binding to the V3 loop-BPs (biosensor). Also on record: species or system human. As to conditions: read-out: IC50 for the inhibition of 5[Kψ(CH2N)PR]-TASP binding to the V3 loop-BPs, increasing concentrations of gp120 HIV-1 Lai.

Where “and” joins values, the source holds several entries; their conditions need not be identical. Identical values can stand only once.

Regarding `Cc1cn([C@H]2C[C@H](N=[N+]=[N-])[C@@H](CO)O2)c(=O)[nH]c1=O` [AZT, reference compound], the “effect on VSV-HIV pseudotyped virus entry and replication” value with VSV/HIV is given as “inhibited”. In addition, the “inhibition of HIV infection monitored by the production of p24” value in the experiment with HIV-1 Lai (AZT 5 μM) is “more than 99%”. Besides, the “effect on infection by HIV-1 pseudotyped Mo-MLV virus” value in experiment [1] was “inhibited”.
Heparin [reference compound]: the “effect on entry of drug-resistant HIV-1 isolates” value in experiment [2] is “drastically inhibited”. In addition, the “effect on viral entry (β-galactosidase activity at 48 hours post-infection)” value with HIV-1 JRCSF was “no significant effect”; in the experiment on HIV-1 Bal, “no significant effect”; with HIV-1 Lai (HIV-1 LAI, heparin 1, 5, 10 μg/ml, mAb a-V3 5 μg/ml) it was “inhibits”; in the experiment on HIV-2 ROD, “inhibits”. Further, the “effect on HIV-1 Ada-M entry” value with HIV-1 Ada-M is listed as “inhibits”. Besides, the “effect on SIVmac entry” value in the experiment on SIVmac is listed as “inhibits”.
As for “NCTRPNNNRKSIRIQRGPGRAFVTIGKIGNMRQAHCNIS [V3 loop-Lai, synthetic V3 loop peptide of T-cell tropic HIV-1 Lai]”, the “equilibrium affinity constant Ka” value in experiment [3] was 5.1e+06 M⁻¹.
As to “NCTRPNNNTRKSIHIGPGRAFYTGEIIGDIRQAHCNLS [V3 loop-Ba-L, synthetic V3 loop peptide of macrophage-tropic HIV-1 Ba-L]”, the “equilibrium affinity constant Ka” value in [3] was 1.5e+06 M⁻¹.
On to “gp120 HIV-1 Lai: recombinant external envelope glycoprotein of HIV-1 Lai”, for which the “binding to the purified V3 loop-BPs in ELISA” value in the experiment with V3 loop-BPs [4] is given as “bind in a dose-dependent manner”. Also, in experiment [3], the “Ka (equilibrium affinity constant)” value worked out at 2.1e+08 M⁻¹, the “ka (association rate constant)” value was 4.40 × 10^5 M^−1S^−1, the “kd (dissociation rate constant)” value was 2.10 × 10^−3 S^−1 and the “equilibrium affinity constant Ka” value turned out to be 2.1e+08 M⁻¹. In the experiment with CD4, the “Ka (equilibrium affinity constant)” value came to 1.08e+09 M⁻¹, the “ka (association rate constant)” value was 5.88 × 10^5 M^−1S^−1 and the “kd (dissociation rate constant)” value is 54.50 × 10^−3 S^−1. Moreover, the IC50 at V3 loop-BPs [5] is about 3 nM.
In the case of “gp120 HIV-1 MN: recombinant gp120 of HIV-1 MN”, in experiment [3], the “Ka (equilibrium affinity constant)” value came out at 4.3e+08 M⁻¹, the “ka (association rate constant)” value is listed as 1.90 × 10^5 M^−1S^−1, the “kd (dissociation rate constant)” value is listed as 0.44 × 10^−3 S^−1 and the “equilibrium affinity constant Ka” value was 4.3e+08 M⁻¹. In the experiment with CD4, the “Ka (equilibrium affinity constant)” value turned out to be 7.7e+08 M⁻¹, the “ka (association rate constant)” value is 2.98 × 10^5 M^−1S^−1 and the “kd (dissociation rate constant)” value was 38.60 × 10^−3 S^−1.
On to “gp120 HIV-1 SF2 2/3: nonglycosylated form of gp120 of HIV-1 SF2 (Env 2-3)”, for which, in [3], the “Ka (equilibrium affinity constant)” value was determined as 1.6e+08 M⁻¹, the “ka (association rate constant)” value is 3.80 × 10^5 M^−1S^−1, the “kd (dissociation rate constant)” value is reported as 2.40 × 10^−3 S^−1 and the “equilibrium affinity constant Ka” value was found to be 1.6e+08 M⁻¹.
Turning to “gp120 HIV-1 SF2: recombinant gp120 of HIV-1 SF2 produced in CHO cells”, in experiment [3], the “Ka (equilibrium affinity constant)” value stood at 2.32e+09 M⁻¹; the “ka (association rate constant)” value is listed as 0.65 × 10^5 M^−1S^−1; the “kd (dissociation rate constant)” value was 0.028 × 10^−3 S^−1 and 0.03 × 10^−3 S^−1; the “equilibrium affinity constant Ka” value was 2.3e+09 M⁻¹. In the experiment with CD4, the “Ka (equilibrium affinity constant)” value turned out to be 2.1e+08 M⁻¹, the “ka (association rate constant)” value is on record as 11.50 × 10^5 M^−1S^−1 and the “kd (dissociation rate constant)” value is recorded as 5.60 × 10^−3 S^−1.

For the origin of these results see patent publication US20020076693A1, “Novel cell surface receptor for HIV retroviruses, therapeutic and diagnostic uses” (priority 1997, published 2002).
